Assay results: ChEMBL document CHEMBL5046290, “Design, Synthesis, and Preclinical Profiling of GSK3739936 (BMS-986180), an Allosteric Inhibitor of HIV-1 Integrase with Broad-Spectrum Activity toward 124/125 Polymorphs” (J Med Chem, 2022)

Columns and labels:
[1] = AUC in Beagle dog at 2 mg/kg, po by LC-MS/MS analysis; format: ADME, organism-based, Canis lupus familiaris; set-up: dose 2 mg/kg; settings: in vivo
[2] = Plasma protein binding in dog; format: ADME, cell-free, Canis lupus familiaris; settings: read-out: PPB (converted)
[3] = Toxicity in rat assessed as histological changes in stomach at 500 mg/kg/day; format: organism-based; settings: in vivo
[4] = Tmax in Beagle dog at 2 mg/kg, po by LC-MS/MS analysis; format: ADME, organism-based, Canis lupus familiaris; settings: in vivo
[5] = Toxicity in rat assessed as histological changes in spleen at 500 mg/kg/day; format: organism-based; settings: in vivo
[6] = Plasma protein binding in rat; format: ADME, cell-free; settings: read-out: PPB (converted)
[7] = Elimination half life in CD-1 mouse at 1 mg/kg, iv by LC-MS/MS analysis; format: ADME, organism-based; settings: in vivo, read-out: beta t1/2 (converted)
Salmonella typhimurium = assay: Mutagenicity in Salmonella Typhimurium using Aroclor 1254 induced rat liver S9 fraction by […] assay; format: toxicity, organism-based; settings: salmonella enterica subsp. enterica serovar typhimurium
[8] = Oral bioavailability in cynomolgus monkey at 2 mg/kg by LC-MS/MS analysis; format: ADME, organism-based, Macaca fascicularis; settings: in vivo
[9] = tested on: Human immunodeficiency virus 1; assay: Antiviral activity against recombinant HIV1 NLRep-Rluc harbouring polymorphic AT infected in human MT-2 cells assessed as inhibition of virus growth in presence of fetal bovine serum by measuring luciferase activity after 5 days; format: functional, organism-based; settings: Human immunodeficiency virus 1, NLRep, MT2, 120 h
[10] = Clearance in Sprague-Dawley rat at 1 mg/kg, iv by LC-MS/MS analysis; format: ADME, organism-based; settings: in vivo
[11] = tested on: Human immunodeficiency virus 1; assay: Antiviral activity against recombinant HIV1 NLRep-Rluc harbouring polymorphic AA infected in human MT-2 cells assessed as inhibition of virus growth in presence of fetal bovine serum by measuring luciferase activity after 5 days; format: functional, organism-based; settings: Human immunodeficiency virus 1, NLRep, MT2, 120 h
[12] = Toxicity in rat assessed as histological changes in lymph node at 500 mg/kg/day; format: organism-based; settings: in vivo
[13] = Plasma protein binding in monkey; format: ADME, cell-free, Macaca mulatta; settings: rhesus monkey, read-out: PPB (converted)
CYP [14] = target: CYP (Homo sapiens, UniProt P04798+P05177+P05181+P08684+P10632+P10635+P11509+P11712+P13584+P20813+P20815+P20853+P24462+P24903+P33260+P33261+P51589+P78329+P98187+Q02928+Q08477+Q16678+Q16696+Q5TCH4+Q6VVX0+Q7Z449+Q8TAV3+Q96SQ9+Q9HB55); assay: Half life in human assessed as CYP mediated metabolism in presence of […] by phase I metabolic oxidation assay; format: ADME, protein assay
CYP [15] = assay: Half life in rat assessed as CYP mediated metabolism in presence of […] by phase I metabolic oxidation assay; format: ADME
[16] = AUC in Sprague-Dawley rat at 5 mg/kg, po by LC-MS/MS analysis; format: ADME, organism-based; set-up: dose 5 mg/kg; settings: in vivo
Cytochrome P450 2C19 = Cytochrome P450 2C19 (Homo sapiens, UniProt P33261); assay: Inhibition of human CYP2C19; format: ADME
[17] = Metabolic stability in rat liver microsome assessed half life at 0.5 uM by LC-MS/MS analysis; format: ADME; settings: liver microsomes
[18] = tested on: Human immunodeficiency virus 1; assay: Antiviral activity against recombinant HIV1 A128T-resitant mutant […] infected in human MT-2 cells assessed as inhibition of virus growth in presence of fetal bovine serum by measuring luciferase activity after 5 days; format: functional, organism-based; settings: Human immunodeficiency virus 1, MT2, 120 h
UGT = UGT (Homo sapiens, UniProt O60656+O75310+O75795+P06133+P0DTE4+P0DTE5+P16662+P19224+P22309+P22310+P35503+P35504+P36537+P54855+Q6UWM9+Q9BY64+Q9HAW7+Q9HAW8+Q9HAW9); assay: Metabolic stability assessed as human UGT-mediated metabolism by measuring half life by phase II UGT conjugation assay; format: ADME, protein assay
[19] = Oral bioavailability in CD-1 mouse at 5 mg/kg by LC-MS/MS analysis; format: ADME, organism-based; settings: in vivo
[20] = Toxicity in rat assessed as lipidosis at 500 mg/kg/day; format: organism-based; settings: in vivo
[21] = Volume of distribution at steady state in Cynomolgus monkey at 1 mg/kg, iv by LC-MS/MS analysis; format: ADME, organism-based, Macaca fascicularis; settings: in vivo, read-out: Vdss
[22] = Clearance in Cynomolgus monkey at 1 mg/kg, iv by LC-MS/MS analysis; format: ADME, organism-based, Macaca fascicularis; settings: in vivo
[23] = Volume of distribution at steady state in Beagle dog at 1 mg/kg, iv by LC-MS/MS analysis; format: ADME, organism-based, Canis lupus familiaris; settings: in vivo, read-out: Vdss
[24] = Toxicity in rat assessed as distended stomach at 500 mg/kg/day; format: organism-based; settings: in vivo
[25] = tested on: Human immunodeficiency virus 1; assay: Antiviral activity against recombinant HIV1 NLRep-Rluc harbouring polymorphic NT infected in human MT-2 cells assessed as inhibition of virus growth in presence of fetal bovine serum by measuring luciferase activity after 5 days; format: functional, organism-based; settings: Human immunodeficiency virus 1, NLRep, MT2, 120 h
[26] = Solubility of the compound using amorphous form of sample; format: physicochemical
Cytochrome P450 2D6 = Cytochrome P450 2D6 (Homo sapiens, UniProt P10635); assay: Inhibition of human CYP2D6; format: ADME
[27] = Displacement of [3H](S)-2-(tert-butoxy)-2-(2-methyl-4-(p-tolyl)quinolin-3-yl)acetic acid from LEDGF-binding site of recombinant T124/T125 polymorphic HIV1 integrase by LIDIA assay; set-up: species or system Human immunodeficiency virus 1
[28] = Tmax in Sprague-Dawley rat at 5 mg/kg, po by LC-MS/MS analysis; format: ADME, organism-based; settings: in vivo
[29] = Toxicity in rat at 50 to 500 mg/kg in cannulated jugular vein; format: organism-based; settings: in vivo, iv, dose 50-500 mg/kg
[30] = AUC in CD-1 mouse at 5 mg/kg, po by LC-MS/MS analysis; format: ADME, organism-based; set-up: dose 5 mg/kg; settings: in vivo
sodium channel = assay: Inhibition of sodium channel (unknown origin) at 10 uM; format: toxicity; settings: human
[31] = Toxicity in dog assessed as fecal change at upto 300 mg/kg, po administered as single dose; format: organism-based, Canis lupus familiaris; settings: in vivo
Cytochrome P450 1A2 = target: T1, Cytochrome P450 1A2 (Homo sapiens, UniProt P05177); assay: Inhibition of human CYP1A2; format: ADME
T1 sequence (P05177 whole entry): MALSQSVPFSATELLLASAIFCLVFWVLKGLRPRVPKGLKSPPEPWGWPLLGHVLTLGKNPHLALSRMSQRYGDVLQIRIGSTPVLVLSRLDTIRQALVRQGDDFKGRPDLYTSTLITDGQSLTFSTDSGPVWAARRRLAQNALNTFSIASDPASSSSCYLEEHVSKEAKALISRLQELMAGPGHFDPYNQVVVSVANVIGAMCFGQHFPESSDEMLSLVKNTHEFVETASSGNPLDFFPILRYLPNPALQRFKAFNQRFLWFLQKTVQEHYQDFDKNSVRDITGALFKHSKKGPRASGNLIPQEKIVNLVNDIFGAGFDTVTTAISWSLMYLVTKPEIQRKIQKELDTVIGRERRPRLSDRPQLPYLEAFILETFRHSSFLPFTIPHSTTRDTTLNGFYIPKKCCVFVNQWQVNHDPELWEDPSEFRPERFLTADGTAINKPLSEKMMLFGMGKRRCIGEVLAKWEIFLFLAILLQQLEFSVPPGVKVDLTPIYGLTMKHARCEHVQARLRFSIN

Sequence of Cytochrome P450 2D6 (P10635 whole entry): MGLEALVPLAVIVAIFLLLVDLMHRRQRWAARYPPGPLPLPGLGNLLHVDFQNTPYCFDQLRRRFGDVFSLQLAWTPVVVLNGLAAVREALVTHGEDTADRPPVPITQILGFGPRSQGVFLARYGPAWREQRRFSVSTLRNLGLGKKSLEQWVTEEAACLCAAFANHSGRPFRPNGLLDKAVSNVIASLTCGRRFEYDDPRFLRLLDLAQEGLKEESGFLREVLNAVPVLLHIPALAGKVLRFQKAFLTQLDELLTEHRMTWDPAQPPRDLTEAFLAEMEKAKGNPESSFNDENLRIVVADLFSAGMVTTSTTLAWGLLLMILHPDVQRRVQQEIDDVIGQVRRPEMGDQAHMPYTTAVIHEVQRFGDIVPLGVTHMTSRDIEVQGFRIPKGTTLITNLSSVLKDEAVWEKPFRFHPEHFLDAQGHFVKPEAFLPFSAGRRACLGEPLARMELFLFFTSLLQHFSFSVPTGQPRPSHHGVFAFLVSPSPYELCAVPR
Sequence of Cytochrome P450 2C19 (P33261 whole entry): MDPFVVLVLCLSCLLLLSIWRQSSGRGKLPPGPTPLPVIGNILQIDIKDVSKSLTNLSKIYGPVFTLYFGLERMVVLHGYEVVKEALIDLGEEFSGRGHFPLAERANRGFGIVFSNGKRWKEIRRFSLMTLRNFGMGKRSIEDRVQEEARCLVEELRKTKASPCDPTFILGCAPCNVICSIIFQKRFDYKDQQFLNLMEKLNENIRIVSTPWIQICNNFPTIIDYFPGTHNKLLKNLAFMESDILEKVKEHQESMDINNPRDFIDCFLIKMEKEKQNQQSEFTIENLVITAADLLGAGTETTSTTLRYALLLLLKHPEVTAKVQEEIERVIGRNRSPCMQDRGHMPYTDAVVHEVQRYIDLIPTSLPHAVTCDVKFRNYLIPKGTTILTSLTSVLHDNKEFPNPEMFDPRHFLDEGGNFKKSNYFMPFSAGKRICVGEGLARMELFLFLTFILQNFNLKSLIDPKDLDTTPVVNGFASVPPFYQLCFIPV

## Cc1nc(C)c([C@H](OC(C)(C)C)C(=O)O)c(N2CCC(C)(C)CC2)c1-c1ccc(OCCc2ccc(F)cc2)cc1
[1]
  AUC: 18.5 µM·h
[2]
  fraction unbound: 0.13
[3]
  Activity: Toxic
[4]
  Tmax: 2 h
[5]
  Activity: Toxic
[6]
  fraction unbound: 0.19
[7]
  half-life: 6.3 h
Salmonella typhimurium
  Activity: Non-Toxic
[8]
  bioavailability: 54%
[9]
  EC50: 5.1 nM
[10]
  clearance: 5.5 mL/min/kg
[11]
  EC50: 3.2 nM
[12]
  Activity: Toxic
[13]
  fraction unbound: 0.21
CYP [14]
  half-life: 1.42 h
CYP [15]
  half-life: > 2 h
[16]
  AUC: 14 µM·h
Cytochrome P450 2C19
  IC50: ≥ 24300 nM
[17]
  half-life at 0.5 µM: > 2 h
[18]
  EC50: 363 nM
UGT
  half-life: ≥ 2 h
[19]
  bioavailability: 89%
[20]
  Activity: Toxic
[21]
  Vd: 1.5 L/kg
[22]
  clearance: 14.5 mL/min/kg
[23]
  Vd: 0.7 L/kg
[24]
  Activity: Toxic
[25]
  EC50: 3.5 nM
[26]
  solubility: < 1 µg/mL
Cytochrome P450 2D6
  IC50: ≥ 24300 nM
[27]
  IC50: 11.1 nM
[28]
  Tmax: 2.7 h
[29]
  Activity: Non-Toxic
[30]
  AUC: 24.5 µM·h
Sodium channel
  inhibition at 10 µM: 79%
[31]
  Activity: Toxic
Cytochrome P450 1A2
  IC50: ≥ 24300 nM
